Our source for the IC50 and IC90 values is ChEMBL document CHEMBL4483862, “Open-source discovery of chemical leads for next-generation chemoprotective antimalarials” (2018).

In this test the test system is Plasmodium berghei. Nature of the test: Luciferase/luciferin-expressing antifolate-resistant parasites were used to infect a culture of HepG2 cells that were pre-incubated with compounds. Infected hepatocytes emit light due to the luciferase reaction. Assay results are presented as the percent inhibition of light emission compared to control. […]. The class given is functional. Conditions: sporozoite; for IC90: read-out: LUCIFERASE INFECTION ASSAY - IC90.

[1] abbreviates: read-out: LUCIFERASE INFECTION ASSAY - IC50.

Usually IC50 stands for the midpoint of a concentration-inhibition curve. For orientation: IC90 means the concentration needed for an effect of 90%.

Some results are limits rather than exact numbers.

As for `CCCNC(=O)c1c(NC(=O)c2ccc(CC)cc2)nc2ccccn12`, the IC90 was found to be 3.4 µM. Besides, the IC50 (HEPG2TOX_HILL_SLOPE 3.85, HEPG2TOX_R_SQUARED 0.726, PBLUC_HILL_SLOPE 11.9, PBLUC_R_SQUARED 0.398, read-out: LUCIFERASE INFECTION ASSAY - IC50) worked out at 2.83 µM.
On to `CCOc1cc(/C=C(\C#N)C(=O)c2cccc(OC)c2)cc(Cl)c1O`, for which the 90% effect concentration (IC90) is greater than 10 µM. Moreover, the IC50 under setting [1] was greater than 10 µM.
Take `NC(=O)c1ccc(-c2cc(-c3ccc(F)cc3)cnc2N)cc1`: the IC90 turned out to be 2.33 µM. In addition, the IC50 (HEPG2TOX_HILL_SLOPE 8.28, HEPG2TOX_R_SQUARED 0.58, PBLUC_HILL_SLOPE 436, PBLUC_R_SQUARED 0.522, read-out: LUCIFERASE INFECTION ASSAY - IC50) worked out at 2.32 µM.
Take `CCCCNC(=O)c1c(NC(=O)c2ccc(F)cc2)nc2ccc(C)cn12`: the IC90 came to 3.28 µM. For the same compound, the half-inhibitory concentration (IC50) under setting [1] came to 2.67 µM.
`COC(=O)c1cnc(Sc2nnc(C(F)(F)F)n2C)c([N+](=O)[O-])c1`: the IC90 is greater than 9.08 µM. The IC50 (HEPG2TOX_HILL_SLOPE 7.14, HEPG2TOX_R_SQUARED 0.788, read-out: LUCIFERASE INFECTION ASSAY - IC50) is greater than 9.08 µM.
On to `O=C(CSc1cccc[n+]1[O-])N1N=C2/C(=C/c3ccccc3)CCCC2C1c1ccccc1` (stereo not given), for which the IC90 worked out at 6.17 µM. Moreover, the IC50 (PBLUC_HILL_SLOPE 13.0, 1.48, PBLUC_R_SQUARED 0.151, 0.616, read-out: LUCIFERASE INFECTION ASSAY - IC50) worked out at 2.66 µM.
As for `COc1cc(NC(=O)COc2ccc3[nH]c4ccccc4c(=O)c3c2)c(OC)cc1Cl`, the IC90 came to 2.11 µM. Also, under setting [1], the IC50 amounted to 0.246 µM.
On to `COc1ccc(NS(=O)(=O)c2cc(NC(=O)c3cc(C4CC4)on3)ccc2N2CCCCC2)cc1`, for which the IC90 is greater than 10 µM. Under “FFLUC_HILL_SLOPE 8.45, FFLUC_R_SQUARED 0.551, read-out: LUCIFERASE INFECTION ASSAY - IC50”, the IC50 was greater than 10 µM.
Take `O=C(Nc1nc2ccccc2[nH]1)c1cn(-c2ccccc2C(F)(F)F)nn1`: the IC90 is greater than 10 µM. The IC50 (FFLUC_HILL_SLOPE 2.58, FFLUC_R_SQUARED 0.587, PBLUC_HILL_SLOPE 2.16, PBLUC_R_SQUARED 0.829, read-out: LUCIFERASE INFECTION ASSAY - IC50) came out at 5.53 µM.
As to `Cc1cc(Cl)ccc1OCCCC(=O)NCCn1c(C)nc2ccccc21`, the IC90 is greater than 10 µM. In addition, for the setting “PBLUC_HILL_SLOPE 11.5, PBLUC_R_SQUARED 0.538, read-out: LUCIFERASE INFECTION ASSAY - IC50”, the half-inhibitory concentration (IC50) stood at 9.27 µM.
Take `CCOC(=O)C1=C(NC(=O)Nc2ccc(Cl)c(Cl)c2)Nc2ccccc2N=C1CC`: the IC90 is greater than 10 µM. Further, the IC50 under setting [1] is greater than 10 µM.
As for `CN1C(c2ccc(F)cc2)=CS/C1=C(/C#N)c1nnc(N2CCOCC2)n1-c1ccccc1`, the IC90 was greater than 10 µM. Also, the IC50 (PBLUC_HILL_SLOPE 2.7, PBLUC_R_SQUARED 0.681, read-out: LUCIFERASE INFECTION ASSAY - IC50) amounted to 6.9 µM.
`c1ccc(-c2nc3sccn3c2CSc2nnnn2C2CCCC2)cc1`: the IC90 was greater than 10 µM. Further, the IC50 (PBLUC_HILL_SLOPE 2.99, PBLUC_R_SQUARED 0.0258, read-out: LUCIFERASE INFECTION ASSAY - IC50) was 8.01 µM.
Take `CNc1nc(SCCS(=O)(=O)c2ccccc2)nc2ccccc12`: the IC90 amounted to 6.83 µM. In addition, the IC50 (PBLUC_HILL_SLOPE 1.42, PBLUC_R_SQUARED 0.718, read-out: LUCIFERASE INFECTION ASSAY - IC50) is 1.45 µM.
Turning to `CC(C)(C)NC(=O)CN1CCN(Cc2ccc(-c3ccccc3C#N)cc2)CC1`, the IC90 is greater than 10 µM. Where the note is “HEPG2TOX_HILL_SLOPE 0.417, HEPG2TOX_R_SQUARED 0.524, read-out: LUCIFERASE INFECTION ASSAY - IC50”, the IC50 is greater than 10 µM.
Consider `CCSc1nc(SCCCN(C)C)c2c3c(sc2n1)COC(C)(C)C3`, for which the IC90 was greater than 8.3 µM. Moreover, the half-inhibitory concentration (IC50) under setting [1] was greater than 8.3 µM.
For `C=CCNC(=O)COc1ccc2c(=O)c(-c3ccc(Cl)cc3)c(C)oc2c1`, the IC90 is greater than 8.6 µM. Moreover, the IC50 under setting [1] is greater than 8.6 µM.
For the compound `Cc1cc(O)c(CN2CCN(C(=O)C34CC5CC(CC(C5)C3)C4)CC2)cc1C`, the 90% effect concentration (IC90) is greater than 10 µM. Also, under setting [1], the IC50 was greater than 10 µM.
In the case of `O=S(=O)(Nc1ccc(OC(F)(F)F)cc1)c1ccc(S(=O)(=O)c2ncc(C(F)(F)F)cc2Cl)s1`, the IC90 is greater than 5.82 µM. The IC50 (FFLUC_HILL_SLOPE 4.61, FFLUC_R_SQUARED 0.168, read-out: LUCIFERASE INFECTION ASSAY - IC50) is greater than 5.82 µM.
In the case of `O=S(=O)(CCN1CCC(C(c2ccccc2)c2ccccc2)CC1)c1ccc(F)cc1`, the IC90 is 5.93 µM. Also, the IC50 (PBLUC_HILL_SLOPE 2.04, PBLUC_R_SQUARED 0.498, read-out: LUCIFERASE INFECTION ASSAY - IC50) turned out to be 2.02 µM.
Regarding `CC(=O)Nc1ccc(C(=S)NCCCN2CCCC2=O)cc1`, the IC90 was greater than 10 µM. Besides, the IC50 under setting [1] was greater than 10 µM.
With `COc1ccc(OCC[N+](C)(Cc2csc(Nc3ccccc3)n2)Cc2csc(Nc3ccccc3)n2)cc1`, the IC90 was found to be 7.93 µM. The IC50 (HEPG2TOX_HILL_SLOPE 7.97, HEPG2TOX_R_SQUARED 0.988, PBLUC_HILL_SLOPE 3.3, PBLUC_R_SQUARED 0.694, read-out: LUCIFERASE INFECTION ASSAY - IC50) turned out to be 4.08 µM.
With `CCN(CC(=O)Nc1cccc(OC)c1)C(=O)C1Cc2ccccc2O1` (stereo not given), the IC90 is greater than 10 µM. Also, the IC50 under setting [1] was greater than 10 µM.
For the compound `COc1ccc(CCN=C(S)NC2CCN(Cc3ccccc3)CC2)cc1`, the IC90 was greater than 10 µM. For the same compound, the IC50 (HEPG2TOX_HILL_SLOPE 2.55, HEPG2TOX_R_SQUARED 0.6, read-out: LUCIFERASE INFECTION ASSAY - IC50) was greater than 10 µM.
On to `O=C(CSc1nnc(-c2ccc(Cl)cc2Cl)n1-c1ccc(F)c(Cl)c1)NCCC1=CCCCC1`, for which the IC90 was greater than 10 µM. Further, for the setting “FFLUC_HILL_SLOPE 2.41, FFLUC_R_SQUARED 0.138, HEPG2TOX_HILL_SLOPE 7.97, HEPG2TOX_R_SQUARED 0.0659, PBLUC_HILL_SLOPE 2.87, PBLUC_R_SQUARED 0.0345, read-out: LUCIFERASE INFECTION ASSAY - IC50”, the IC50 was determined as 8.61 µM.
As to `Cn1c(NCC2CC2)nc2cnc(-c3ccc4ccccc4c3)cc21`, the IC90 came to 2.07 µM. Further, the IC50 (FFLUC_HILL_SLOPE 1.05, FFLUC_R_SQUARED 0.583, HEPG2TOX_HILL_SLOPE 31.1, HEPG2TOX_R_SQUARED 0.421, PBLUC_HILL_SLOPE 0.605, PBLUC_R_SQUARED 0.735, read-out: LUCIFERASE INFECTION ASSAY - IC50) was 0.0548 µM.
On to `c1ccc(Cn2c(-c3cccnc3)cc3cnc(Nc4ccc(N5CCOCC5)cc4)cc32)cc1`, for which the concentration for an effect of 90% (IC90) was determined as 8.6 µM. Also, the IC50 (HEPG2TOX_HILL_SLOPE 16.1, HEPG2TOX_R_SQUARED 0.869, PBLUC_HILL_SLOPE 3.82, PBLUC_R_SQUARED 0.619, read-out: LUCIFERASE INFECTION ASSAY - IC50) came to 4.83 µM.
For `COc1cc(NC(=O)N2CCc3nc(Nc4cc(Cl)cc(Cl)c4)ncc3C2)cc(OC)c1OC`, the 90% effect concentration (IC90) is greater than 6.54 µM. Also, the IC50 (PBLUC_HILL_SLOPE 1.96, PBLUC_R_SQUARED 0.41, read-out: LUCIFERASE INFECTION ASSAY - IC50) was 3.52 µM.
Take `O=C(Nc1ccc(N2CCCC2)cn1)C1CC=CCC1` (stereo not given): the concentration for an effect of 90% (IC90) came to 0.636 µM. For the setting “FFLUC_HILL_SLOPE 1.03, FFLUC_R_SQUARED 0.671, HEPG2TOX_HILL_SLOPE 1.03, HEPG2TOX_R_SQUARED 0.932, PBLUC_HILL_SLOPE 1.27, PBLUC_R_SQUARED 0.726, read-out: LUCIFERASE INFECTION ASSAY - IC50”, the IC50 was 0.112 µM.
For `OCCCNc1nn2c(-c3cccc(Cl)c3)cnc2s1`, the concentration for an effect of 90% (IC90) is greater than 10.7 µM. Under “HEPG2TOX_HILL_SLOPE 8.79, HEPG2TOX_R_SQUARED 0.819, PBLUC_HILL_SLOPE 13.4, PBLUC_R_SQUARED 0.184, read-out: LUCIFERASE INFECTION ASSAY - IC50”, the IC50 was determined as 9.8 µM.
Consider `CC(C)Oc1cccc(Nc2ncc(C(=O)c3cccc(-c4ccncc4)c3)[nH]2)c1`, for which the IC90 came to 3.9 µM. Where the note is “HEPG2TOX_HILL_SLOPE 3.28, HEPG2TOX_R_SQUARED 0.825, PBLUC_HILL_SLOPE 4.08, PBLUC_R_SQUARED 0.607, read-out: LUCIFERASE INFECTION ASSAY - IC50”, the IC50 was 2.27 µM.
Turning to `CC1=CC(C)(C)N2C(=O)C3(NCCc4c3[nH]c3ccccc43)c3cc(C)cc1c32` (stereo not given), the IC90 turned out to be 3.21 µM. Besides, the IC50 (HEPG2TOX_HILL_SLOPE 3.19, HEPG2TOX_R_SQUARED 0.903, PBLUC_HILL_SLOPE 11.5, PBLUC_R_SQUARED 0.604, read-out: LUCIFERASE INFECTION ASSAY - IC50) turned out to be 2.66 µM.
Take `Cc1ccc(-c2nnc(SCC(=O)c3c(N)n(C)c(=O)n(C)c3=O)nc2-c2ccc(C)cc2)cc1`: the concentration for an effect of 90% (IC90) was greater than 10 µM. The IC50 (FFLUC_HILL_SLOPE 1.03, FFLUC_R_SQUARED 0.511, read-out: LUCIFERASE INFECTION ASSAY - IC50) is greater than 10 µM.
Regarding `CC(C)(C)c1ccc(-c2nnc(SCC(=O)N3CCc4ccccc4C3)n2Cc2ccccc2)cc1`, the concentration for an effect of 90% (IC90) was greater than 10 µM. The IC50 under setting [1] was greater than 10 µM.
Consider `COc1ccccc1NS(=O)(=O)c1ccc2c(c1)N=Cc1c(F)cccc1O2`, for which the IC90 was greater than 10 µM. Under “FFLUC_HILL_SLOPE 2, FFLUC_R_SQUARED 0.88, HEPG2TOX_HILL_SLOPE 51.5, HEPG2TOX_R_SQUARED 0.639, PBLUC_HILL_SLOPE 12.2, PBLUC_R_SQUARED 0.289, read-out: LUCIFERASE INFECTION ASSAY - IC50”, the IC50 came to 9.2 µM.
